Reference: US20250115595A1, “INHIBITORS OF HYPOXIA-INDUCIBLE FACTORS” (The Johns Hopkins University, priority 2021, published 2025)

Tested on: cytokine mRNAs
Experiment: RT-qPCR array of mouse cytokines and chemokines in Hepa1-6 tumors
Format: in vivo
Details: Hepa1-6 tumors, vs vehicle
Description: Total RNA from Hepa1-6 tumors was analyzed using the RT2 Profiler PCR Array of Mouse Cytokines and Chemokines (Qiagen, catalog number 330231 PAMM-150ZA) according to the manufacturer's instructions.

Brc1ccc2c(-c3csc(-c4c[nH]c5c(Br)cccc45)n3)c[nH]c2c1 [Compound 32-134D, 4-(6-bromo-1H-indol-3-yl)-2-(7-bromo-1H-indol-3-yl)thiazole]
Adipoq mRNA Fold Change Test Group/Control Group: 0.43 | Adipoq mRNA Fold Up- or Down-Regulation Test Group/Control Group: −2.31 | Adipoq mRNA X axis (Log2(fold change)): −1.21 | Bmp2 mRNA Fold Change Test Group/Control Group: 0.51 | Bmp2 mRNA Fold Up- or Down-Regulation Test Group/Control Group: −1.95 | Bmp2 mRNA X axis (Log2(fold change)): −0.96 | Bmp4 mRNA Fold Change Test Group/Control Group: 0.64 | Bmp4 mRNA Fold Up- or Down-Regulation Test Group/Control Group: −1.96 | Bmp4 mRNA X axis (Log2(fold change)): −0.64 | Bmp6 mRNA Fold Change Test Group/Control Group: 0.44 | Bmp6 mRNA Fold Up- or Down-Regulation Test Group/Control Group: −2.27 | Bmp6 mRNA X axis (Log2(fold change)): −1.18 | Bmp7 mRNA Fold Change Test Group/Control Group: 0.70 | Bmp7 mRNA Fold Up- or Down-Regulation Test Group/Control Group: −1.43 | Bmp7 mRNA X axis (Log2(fold change)): −0.51 | Cc15 mRNA Fold Change Test Group/Control Group: 0.92 | Cc15 mRNA Fold Up- or Down-Regulation Test Group/Control Group: −1.09 | Cc15 mRNA X axis (Log2(fold change)): −0.13 | Cc120 mRNA Fold Change Test Group/Control Group: 0.42 | Cc120 mRNA Fold Up- or Down-Regulation Test Group/Control Group: −2.41 | Cc120 mRNA X axis (Log2(fold change)): −1.27 | Ccl1 mRNA Fold Change Test Group/Control Group: 0.63 | Ccl1 mRNA Fold Up- or Down-Regulation Test Group/Control Group: −1.58 | Ccl1 mRNA X axis (Log2(fold change)): −0.66 | Ccl2 mRNA Fold Change Test Group/Control Group: 1.35 | Ccl2 mRNA Fold Up- or Down-Regulation Test Group/Control Group: 1.35 | Ccl2 mRNA X axis (Log2(fold change)): 0.44 | Ccl3 mRNA Fold Change Test Group/Control Group: 1.06 | Ccl3 mRNA Fold Up- or Down-Regulation Test Group/Control Group: 1.06 | Ccl3 mRNA X axis (Log2(fold change)): 0.09 | Ccl4 mRNA Fold Change Test Group/Control Group: 0.72 | Ccl4 mRNA Fold Up- or Down-Regulation Test Group/Control Group: −1.39 | Ccl4 mRNA X axis (Log2(fold change)): −0.47 | Ccl7 mRNA Fold Change Test Group/Control Group: 1.03 | Ccl7 mRNA Fold Up- or Down-Regulation Test Group/Control Group: 1.03 | Ccl7 mRNA X axis (Log2(fold change)): 0.04 | Ccl11 mRNA Fold Change Test Group/Control Group: 1.03 | Ccl11 mRNA Fold Up- or Down-Regulation Test Group/Control Group: 1.03 | Ccl11 mRNA X axis (Log2(fold change)): 0.04 | Ccl12 mRNA Fold Change Test Group/Control Group: 4.11 | Ccl12 mRNA Fold Up- or Down-Regulation Test Group/Control Group: 4.11 | Ccl12 mRNA X axis (Log2(fold change)): 2.04 | Ccl17 mRNA Fold Change Test Group/Control Group: 0.68 | Ccl17 mRNA Fold Up- or Down-Regulation Test Group/Control Group: −1.47 | Ccl17 mRNA X axis (Log2(fold change)): −0.56 | Ccl19 mRNA Fold Change Test Group/Control Group: 0.54 | Ccl19 mRNA Fold Up- or Down-Regulation Test Group/Control Group: −1.86 | Ccl19 mRNA X axis (Log2(fold change)): −0.89 | Ccl22 mRNA Fold Change Test Group/Control Group: 0.31 | Ccl22 mRNA Fold Up- or Down-Regulation Test Group/Control Group: −3.18 | Ccl22 mRNA X axis (Log2(fold change)): −1.67 | Ccl24 mRNA Fold Change Test Group/Control Group: 1.21 | Ccl24 mRNA Fold Up- or Down-Regulation Test Group/Control Group: 1.21 | Ccl24 mRNA X axis (Log2(fold change)): 0.27 | Cd40lg mRNA Fold Change Test Group/Control Group: 0.52 | Cd40lg mRNA Fold Up- or Down-Regulation Test Group/Control Group: −1.91 | Cd40lg mRNA X axis (Log2(fold change)): −0.93 | Cd70 mRNA Fold Change Test Group/Control Group: 0.24 | Cd70 mRNA Fold Up- or Down-Regulation Test Group/Control Group: −4.19 | Cd70 mRNA X axis (Log2(fold change)): −2.07 | Cntf mRNA Fold Change Test Group/Control Group: 0.38 | Cntf mRNA Fold Up- or Down-Regulation Test Group/Control Group: −2.61 | Cntf mRNA X axis (Log2(fold change)): −1.39 | Csf1 mRNA Fold Change Test Group/Control Group: 1.02 | Csf1 mRNA Fold Up- or Down-Regulation Test Group/Control Group: 1.02 | Csf1 mRNA X axis (Log2(fold change)): 0.03 | Csf2 mRNA Fold Change Test Group/Control Group: 0.38 | Csf2 mRNA Fold Up- or Down-Regulation Test Group/Control Group: −2.64 | Csf2 mRNA X axis (Log2(fold change)): −1.40 | Csf3 mRNA Fold Change Test Group/Control Group: 0.50 | Csf3 mRNA Fold Up- or Down-Regulation Test Group/Control Group: −1.99 | Csf3 mRNA X axis (Log2(fold change)): −0.99 | Ctf1 mRNA Fold Change Test Group/Control Group: 0.19 | Ctf1 mRNA Fold Up- or Down-Regulation Test Group/Control Group: −5.18 | Ctf1 mRNA X axis (Log2(fold change)): −2.37 | Cx3cl1 mRNA Fold Change Test Group/Control Group: 0.53 | Cx3cl1 mRNA Fold Up- or Down-Regulation Test Group/Control Group: −1.89 | Cx3cl1 mRNA X axis (Log2(fold change)): −0.92 | Cxcl1 mRNA Fold Change Test Group/Control Group: 0.67 | Cxcl1 mRNA Fold Up- or Down-Regulation Test Group/Control Group: 1.49 | Cxcl1 mRNA X axis (Log2(fold change)): −0.57 | Cxcl3 mRNA Fold Change Test Group/Control Group: 0.87 | Cxcl3 mRNA Fold Up- or Down-Regulation Test Group/Control Group: −1.14 | Cxcl3 mRNA X axis (Log2(fold change)): −0.19 | Cxcl5 mRNA Fold Change Test Group/Control Group: 1.05 | Cxcl5 mRNA Fold Up- or Down-Regulation Test Group/Control Group: 1.05 | Cxcl5 mRNA X axis (Log2(fold change)): 0.07 | Cxcl9 mRNA Fold Change Test Group/Control Group: 1.64 | Cxcl9 mRNA Fold Up- or Down-Regulation Test Group/Control Group: 1.64 | Cxcl9 mRNA X axis (Log2(fold change)): 0.71 | Cxcl10 mRNA Fold Change Test Group/Control Group: 1.44 | Cxcl10 mRNA Fold Up- or Down-Regulation Test Group/Control Group: 1.44 | Cxcl10 mRNA X axis (Log2(fold change)): 0.53 | Cxcl11 mRNA Fold Change Test Group/Control Group: 0.45 | Cxcl11 mRNA Fold Up- or Down-Regulation Test Group/Control Group: −2.24 | Cxcl11 mRNA X axis (Log2(fold change)): −1.16 | Cxcl12 mRNA Fold Change Test Group/Control Group: 2.26 | Cxcl12 mRNA Fold Up- or Down-Regulation Test Group/Control Group: 2.26 | Cxcl12 mRNA X axis (Log2(fold change)): 1.17 | Cxcl13 mRNA Fold Change Test Group/Control Group: 0.39 | Cxcl13 mRNA Fold Up- or Down-Regulation Test Group/Control Group: −2.57 | Cxcl13 mRNA X axis (Log2(fold change)): −1.36 | Cxcl16 mRNA Fold Change Test Group/Control Group: 0.61 | Cxcl16 mRNA Fold Up- or Down-Regulation Test Group/Control Group: −1.65 | Cxcl16 mRNA X axis (Log2(fold change)): −0.72 | Fasl mRNA Fold Change Test Group/Control Group: 0.59 | Fasl mRNA Fold Up- or Down-Regulation Test Group/Control Group: −1.70 | Fasl mRNA X axis (Log2(fold change)): −0.77 | Gpi1 mRNA Fold Change Test Group/Control Group: 0.64 | Gpi1 mRNA Fold Up- or Down-Regulation Test Group/Control Group: −1.57 | Gpi1 mRNA X axis (Log2(fold change)): −0.65 | Hc mRNA Fold Change Test Group/Control Group: 1.77 | Hc mRNA Fold Up- or Down-Regulation Test Group/Control Group: 1.77 | Hc mRNA X axis (Log2(fold change)): 0.82 | Lif mRNA Fold Change Test Group/Control Group: 0.40 | Lif mRNA Fold Up- or Down-Regulation Test Group/Control Group: −2.48 | Lif mRNA X axis (Log2(fold change)): −1.31 | Lta mRNA Fold Change Test Group/Control Group: 0.34 | Lta mRNA Fold Up- or Down-Regulation Test Group/Control Group: −2.96 | Lta mRNA X axis (Log2(fold change)): −1.57 | Ltb mRNA Fold Change Test Group/Control Group: 0.63 | Ltb mRNA Fold Up- or Down-Regulation Test Group/Control Group: −1.58 | Ltb mRNA X axis (Log2(fold change)): −0.66 | Mif mRNA Fold Change Test Group/Control Group: 1.12 | Mif mRNA Fold Up- or Down-Regulation Test Group/Control Group: 1.12 | Mif mRNA X axis (Log2(fold change)): 0.17 | Mstn mRNA Fold Change Test Group/Control Group: 0.21
